The subject of this assay is Mycobacterium tuberculosis. Briefly: Antimycobacterial activity against wild type Mycobacterium bovis BCG after 21 days. The class given is functional, organism-based. Particulars: variant bovis BCG.

Experimental findings from ChEMBL document CHEMBL1139202, “Inhibition of mycobacterial arylamine N-acetyltransferase contributes to anti-mycobacterial activity of Warburgia salutaris” (Bioorg Med Chem, 2007) are described below.

Take `CC(=O)O[C@@H]1C=C2C(=O)O[C@@H](O)[C@]2(O)[C@@]2(C)CCCC(C)(C)[C@H]12`: the Activity entry is “Dose-dependent effect”.
